Data on 26 molecules can be found in patent publication US9334290B2, “Substituted tetrahydrocarbazole and carbazole carboxamide compounds” (Bristol-Myers Squibb Company, priority 2013, dated 2016).

Where two headings read alike, the source gives them in different places.

In assay [1] the test system is CD69 expression on B cells in human whole blood. Put plainly: Whole blood assay of BCR-stimulated CD69 expression on B cells. The assay is classed as cell-based. To be noted: BCR-stimulated, read-out: CD69 IC50 values.
The next assay concerns the target human recombinant Btk (Homo sapiens (Human), UniProt Q06187). In words: Human Recombinant Btk enzyme assay. The assay is classed as biochemical.
For a further assay, the target named is Jak2 tyrosine kinase (Homo sapiens (Human), UniProt O60674). In words: Jak2 tyrosine kinase assay. It is filed as biochemical.
Jak2 tyrosine kinase, sequence (O60674 whole entry): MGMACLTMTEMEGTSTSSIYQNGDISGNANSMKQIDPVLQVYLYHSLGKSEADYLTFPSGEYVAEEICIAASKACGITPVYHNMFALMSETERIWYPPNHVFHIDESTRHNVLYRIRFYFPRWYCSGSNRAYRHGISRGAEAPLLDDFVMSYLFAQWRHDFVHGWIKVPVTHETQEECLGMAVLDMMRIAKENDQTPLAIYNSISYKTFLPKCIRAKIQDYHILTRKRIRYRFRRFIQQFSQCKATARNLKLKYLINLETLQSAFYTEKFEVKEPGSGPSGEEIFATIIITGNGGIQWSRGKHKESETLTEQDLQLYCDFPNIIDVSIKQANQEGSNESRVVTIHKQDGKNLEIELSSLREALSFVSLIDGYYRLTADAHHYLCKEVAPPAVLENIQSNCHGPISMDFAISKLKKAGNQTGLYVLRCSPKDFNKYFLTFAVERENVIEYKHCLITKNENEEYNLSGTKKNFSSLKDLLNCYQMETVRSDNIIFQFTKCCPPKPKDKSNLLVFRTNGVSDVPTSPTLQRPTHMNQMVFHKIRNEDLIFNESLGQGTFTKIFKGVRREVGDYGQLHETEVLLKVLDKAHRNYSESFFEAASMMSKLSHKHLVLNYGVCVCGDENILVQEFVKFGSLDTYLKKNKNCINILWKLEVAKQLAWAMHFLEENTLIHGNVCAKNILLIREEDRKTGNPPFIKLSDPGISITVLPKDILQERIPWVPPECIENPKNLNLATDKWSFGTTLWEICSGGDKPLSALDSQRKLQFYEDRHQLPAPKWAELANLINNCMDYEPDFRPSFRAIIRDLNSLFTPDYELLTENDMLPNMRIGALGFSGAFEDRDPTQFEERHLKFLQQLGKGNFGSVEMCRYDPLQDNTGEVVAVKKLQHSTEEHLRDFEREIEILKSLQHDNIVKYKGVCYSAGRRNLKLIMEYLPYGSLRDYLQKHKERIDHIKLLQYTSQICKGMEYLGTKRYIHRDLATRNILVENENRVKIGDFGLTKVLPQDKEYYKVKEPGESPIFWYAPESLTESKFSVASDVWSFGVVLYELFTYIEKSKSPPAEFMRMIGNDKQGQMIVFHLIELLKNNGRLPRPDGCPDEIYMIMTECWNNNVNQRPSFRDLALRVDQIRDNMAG

human recombinant Btk, sequence (Q06187 whole entry): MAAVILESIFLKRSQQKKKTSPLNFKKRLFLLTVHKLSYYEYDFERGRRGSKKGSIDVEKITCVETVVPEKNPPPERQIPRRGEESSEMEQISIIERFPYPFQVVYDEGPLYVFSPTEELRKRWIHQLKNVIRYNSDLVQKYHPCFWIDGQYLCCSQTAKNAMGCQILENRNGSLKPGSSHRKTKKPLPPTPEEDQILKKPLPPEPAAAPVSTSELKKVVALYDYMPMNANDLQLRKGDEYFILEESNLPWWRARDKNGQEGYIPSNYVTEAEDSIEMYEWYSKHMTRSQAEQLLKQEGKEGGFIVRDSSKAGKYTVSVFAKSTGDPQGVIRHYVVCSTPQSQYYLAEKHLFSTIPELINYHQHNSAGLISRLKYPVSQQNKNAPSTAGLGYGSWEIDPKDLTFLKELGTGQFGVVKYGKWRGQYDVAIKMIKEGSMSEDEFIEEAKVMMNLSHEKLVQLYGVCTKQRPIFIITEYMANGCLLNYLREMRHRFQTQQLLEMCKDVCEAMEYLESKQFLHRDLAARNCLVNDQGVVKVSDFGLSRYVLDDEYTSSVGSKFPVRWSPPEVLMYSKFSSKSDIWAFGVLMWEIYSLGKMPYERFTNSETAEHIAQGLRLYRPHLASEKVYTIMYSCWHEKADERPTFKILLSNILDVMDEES

Regarding `Cc1c(-c2c(F)cc(C(N)=O)c3[nH]c4c(c23)CC[C@@H](C(C)(C)O)C4)cccc1-n1c(=O)c2cccc(F)c2n(C)c1=O` (atropisomer, axis not shown) [Example 27, 6-Fluoro-5-(R)-(3-(S)-(8-fluoro-1-methyl-2,4-dioxo-1,2-dihydroquinazolin-3(4H)-yl)-2-methylphenyl)-2-(R)-(2-hydroxypropan-2-yl)-2,3,4,9-tetrahydro-1H-carbazole-8-carboxamide], the concentration for half-maximal inhibition (IC50) (as a rule, the concentration that gives 50% inhibition) was 150 nM in assay [1], 2.2 nM at human recombinant Btk (read-out: Btk IC50 value) and > 2000 nM on Jak2 tyrosine kinase.
In the case of `Cc1c(-c2c(F)cc(C(N)=O)c3[nH]c4c(c23)CC[C@H](C(C)(C)O)C4)cccc1-n1c(=O)c2cccc(F)c2n(C)c1=O` (atropisomer, axis not shown) [Example 28, 6-Fluoro-5-(R)-(3-(S)-(8-fluoro-1-methyl-2,4-dioxo-1,2-dihydroquinazolin-3(4H)-yl)-2-methylphenyl)-2-(S)-(2-hydroxypropan-2-yl)-2,3,4,9-tetrahydro-1H-carbazole-8-carboxamide], the IC50 on human recombinant Btk (read-out: Btk IC50 value) stood at 0.54 nM; at Jak2 tyrosine kinase it was 32000 nM. In addition, on Jak2 tyrosine kinase (selectivity of Btk over Jak2), the “Ratio of Jak2/Btk IC50 values” was 59000.
For the molecule `COc1ccc2c(=O)n(-c3cccc(-c4c(Cl)cc(C(N)=O)c5[nH]c6cc(C(C)(C)O)ccc6c45)c3C)c(=O)n(C)c2c1` (single isomer, unassigned) [Example 5], the IC50 in assay [1] (Homo sapiens, B-cell) was 170 nM; at human recombinant Btk (read-out: Btk IC50 value) it was 2.1 nM; at Jak2 tyrosine kinase, > 2000 nM. Further, the “Ratio of Jak2/Btk IC50 values” on Jak2 tyrosine kinase (selectivity of Btk over Jak2) is >950.
Turning to `COc1ccc2c(=O)n(-c3cccc(-c4c(Cl)cc(C(N)=O)c5[nH]c6cc(C(C)(C)O)ccc6c45)c3C)c(=O)n(C)c2c1` (single isomer, unassigned) [Example 6], the IC50 in assay [1] was 100 nM; at human recombinant Btk (read-out: Btk IC50 value), 1.1 nM; at Jak2 tyrosine kinase, 1500 nM. Moreover, the “Ratio of Jak2/Btk IC50 values” at Jak2 tyrosine kinase (selectivity of Btk over Jak2) was 1400.
For `Cc1c(-c2c(Cl)cc(C(N)=O)c3[nH]c4cc(C(C)(C)O)ccc4c23)cccc1-n1c(=O)[nH]c2c(F)cccc2c1=O` (single isomer, unassigned) [Example 14], the IC50 in assay [1] (Homo sapiens, B-cell) came to 20 nM; at human recombinant Btk (read-out: Btk IC50 value), 1.2 nM.
With `Cc1c(-c2c(C#N)cc(C(N)=O)c3[nH]c4cc(C(C)(C)O)ccc4c23)cccc1-n1c(=O)c2cccc(F)c2n(C)c1=O` (single isomer, unassigned) [Example 15], the IC50 in assay [1] (Homo sapiens, B-cell) was found to be 170 nM; on human recombinant Btk (read-out: Btk IC50 value), 1 nM; on Jak2 tyrosine kinase, 2400 nM. Also, at Jak2 tyrosine kinase (selectivity of Btk over Jak2), the “Ratio of Jak2/Btk IC50 values” is reported as 2400.
With `Cc1c(-c2c(C#N)cc(C(N)=O)c3[nH]c4cc(C(C)(C)O)ccc4c23)cccc1-n1c(=O)c2cccc(F)c2n(C)c1=O` (single isomer, unassigned) [Example 16], the IC50 was determined as 120 nM in assay [1], 0.27 nM at human recombinant Btk (read-out: Btk IC50 value) and 1900 nM on Jak2 tyrosine kinase.
Consider `Cc1c(-c2c(F)cc(C(N)=O)c3[nH]c4cc(C(C)(C)O)ccc4c23)cccc1-n1c(=O)cc2c(Cl)cccn2c1=O` (single isomer, unassigned) [Example 30], for which the IC50 in assay [1] (Homo sapiens, B-cell) turned out to be 64 nM; at human recombinant Btk (read-out: Btk IC50 value), 0.22 nM.
Turning to `Cc1c(-c2c(F)cc(C(N)=O)c3[nH]c4cc(C(C)(C)O)ccc4c23)cccc1-n1c(=O)cc2c(Cl)cccn2c1=O` (single isomer, unassigned) [Example 31], the values for the IC50 (in assay [1]; at human recombinant Btk (read-out: Btk IC50 value)) were 37 nM and 0.19 nM, respectively.
For the molecule `Cc1c(-c2c(Cl)cc(C(N)=O)c3[nH]c4cc(C(C)(C)O)ccc4c23)cccc1-n1c(=O)cc2c(F)cccn2c1=O` (single isomer, unassigned) [Example 35], the IC50 stood at 31 nM in assay [1] (Homo sapiens, B-cell); 0.25 nM at human recombinant Btk (read-out: Btk IC50 value); 800 nM on Jak2 tyrosine kinase. The “Ratio of Jak2/Btk IC50 values” at Jak2 tyrosine kinase (selectivity of Btk over Jak2) worked out at 3200.
Regarding `Cc1c(-c2c(Cl)cc(C(N)=O)c3[nH]c4cc(C(C)(C)O)ccc4c23)cccc1-n1c(=O)cc2c(F)cccn2c1=O` (single isomer, unassigned) [Example 36], the IC50 in assay [1] is 28 nM; at human recombinant Btk (read-out: Btk IC50 value), 0.28 nM; at Jak2 tyrosine kinase it was 450 nM. Moreover, the “Ratio of Jak2/Btk IC50 values” on Jak2 tyrosine kinase (selectivity of Btk over Jak2) turned out to be 1600.
Consider `Cc1c(-c2c(Cl)cc(C(N)=O)c3[nH]c4cc(C(C)(C)O)ccc4c23)cccc1-n1c(=O)cc2sccn2c1=O` (single isomer, unassigned) [Example 38], for which the figures for the IC50 (in assay [1]; at human recombinant Btk (read-out: Btk IC50 value); at Jak2 tyrosine kinase) were 53 nM, 0.34 nM and 300 nM, respectively. For the same molecule, the “Ratio of Jak2/Btk IC50 values” at Jak2 tyrosine kinase (selectivity of Btk over Jak2) is given as 880.
On the same counts, the results for `Cc1c(-c2c(Cl)cc(C(N)=O)c3[nH]c4cc(C(C)(C)O)ccc4c23)cccc1-n1c(=O)cc2sccn2c1=O` (single isomer, unassigned) [Example 39] are 130 nM, 0.31 nM, 370 nM and 1200.
Regarding `Cc1c(-c2c(F)cc(C(N)=O)c3[nH]c4cc(C(C)(C)O)ccc4c23)cccc1-n1c(=O)cc2c(F)cccn2c1=O` (single isomer, unassigned) [Example 40], the IC50 in assay [1] (Homo sapiens, B-cell) is 19 nM; at human recombinant Btk (read-out: Btk IC50 value), 0.46 nM; on Jak2 tyrosine kinase it was 830 nM. Further, the “Ratio of Jak2/Btk IC50 values” at Jak2 tyrosine kinase (selectivity of Btk over Jak2) is recorded as 1800.
Take `Cc1c(-c2c(F)cc(C(N)=O)c3[nH]c4cc(C(C)(C)O)ccc4c23)cccc1-n1c(=O)cc2c(F)cccn2c1=O` (single isomer, unassigned) [Example 41]: the IC50 in assay [1] was found to be 22 nM; on human recombinant Btk (read-out: Btk IC50 value) it was 0.2 nM; against Jak2 tyrosine kinase it was 800 nM. For the same molecule, the “Ratio of Jak2/Btk IC50 values” at Jak2 tyrosine kinase (selectivity of Btk over Jak2) is given as 4000.
As for `Cc1c(-c2c(Cl)cc(C(N)=O)c3[nH]c4c(c23)CC[C@H](C(C)(C)O)C4)cccc1-n1c(=O)[nH]c2c(F)cc(F)cc2c1=O` (single isomer, unassigned) [Example 57], the 50% inhibitory concentration (IC50) on human recombinant Btk (read-out: Btk IC50 value) came out at 0.25 nM; against Jak2 tyrosine kinase, 270 nM. Also, the “Ratio of Jak2/Btk IC50 values” at Jak2 tyrosine kinase (selectivity of Btk over Jak2) came out at 1100.
For `[2H]C([2H])([2H])n1c(=O)n(-c2cccc(-c3c(F)cc(C(N)=O)c4[nH]c5c(c34)CC[C@H](C(C)(C)O)C5)c2C)c(=O)c2cccc(F)c21` (single isomer, unassigned) [Example 62], in that order: 0.41 nM, > 2000 nM and >4900.
On the same counts, the results for `Cc1c(-c2c(F)cc(C(N)=O)c3[nH]c4c(c23)CC[C@H](C(C)(C)O)C4)cccc1-n1c(=O)[nH]c2c(Cl)cccc2c1=O` (single isomer, unassigned) [Example 63] are 0.45 nM, 11000 nM and 24000.
Take `Cc1c(-c2c(F)cc(C(N)=O)c3[nH]c4c(c23)CC[C@@H](C(C)(C)O)C4)cccc1-n1c(=O)[nH]c2c(F)cccc2c1=O` (single isomer, unassigned) [Example 67]: on human recombinant Btk (read-out: Btk IC50 value), the IC50 was determined as 0.49 nM.
`Cc1c(-c2c(F)cc(C(N)=O)c3[nH]c4c(c23)CC[C@H](C(C)(C)O)C4)cccc1-n1c(=O)cc2c(F)cccn2c1=O` (single isomer, unassigned) [Example 68]: the IC50 at human recombinant Btk (read-out: Btk IC50 value) is 0.56 nM; on Jak2 tyrosine kinase, 350 nM. At Jak2 tyrosine kinase (selectivity of Btk over Jak2), the “Ratio of Jak2/Btk IC50 values” stood at 630.
As to `Cc1c(-c2c(F)cc(C(N)=O)c3[nH]c4c(c23)CC[C@H](C(C)(C)O)C4)cccc1-n1c(=O)cc2c(F)cccn2c1=O` (single isomer, unassigned) [Example 69], the IC50 in assay [1] is 150 nM; on human recombinant Btk (read-out: Btk IC50 value), 0.84 nM; on Jak2 tyrosine kinase it was 9500 nM. For the same molecule, at Jak2 tyrosine kinase (selectivity of Btk over Jak2), the “Ratio of Jak2/Btk IC50 values” was found to be 11000.
For `Cc1nc(C(N)=O)c2[nH]c3cc(C(C)(C)O)ccc3c2c1-c1cccc(-n2cnc3ccccc3c2=O)c1C` [Comparative Example 76, 7-(2-Hydroxypropan-2-yl)-3-methyl-4-(2-methyl-3-(4-oxoquinazolin-3(4H)-yl)phenyl)-9H-pyrido[3,4-b]indole-1-carboxamide, reference compound], the IC50 at human recombinant Btk (human recombinant Btk 1 nM, ATP 20 μM, read-out: Btk IC50) stood at 6.9 nM; on human recombinant Btk (read-out: Btk IC50 value), 6.9 nM; against Jak2 tyrosine kinase, 200 nM. In addition, the “Ratio of Jak2/Btk IC50 values” worked out at 29 at Jak2 tyrosine kinase (Jak2 IC50 divided by Btk IC50, larger value = more selective for Btk) and 29 at Jak2 tyrosine kinase (selectivity of Btk over Jak2).
As to `Cc1c(-c2c(Cl)cc(C(N)=O)c3[nH]c4cc(C(C)(C)O)ccc4c23)cccc1-n1c(=O)[nH]c2c(F)cccc2c1=O` [Example 13, 3-Chloro-4-(3-(8-fluoro-2,4-dioxo-1,2-dihydroquinazolin-3(4H)-yl)-2-methylphenyl)-7-(2-hydroxypropan-2-yl)-9H-carbazole-1-carboxamide], the IC50 stood at 140 nM in assay [1] (Homo sapiens, B-cell) and 2.9 nM at human recombinant Btk (read-out: Btk IC50 value).
Take `Cc1c(-c2c(Cl)cc(C(N)=O)c3[nH]c4cc(C(C)(C)O)ccc4c23)cccc1-n1c(=O)cc2c(F)cccn2c1=O` [Example 34, 3-Chloro-4-(3-(5-fluoro-1,3-dioxo-1H-pyrido[1,2-c]pyrimidin-2(3H)-yl)-2-methylphenyl)-7-(2-hydroxypropan-2-yl)-9H-carbazole-1-carboxamide]: the half-maximal inhibitory concentration (IC50) was 98 nM in assay [1] (Homo sapiens, B-cell); 0.85 nM on human recombinant Btk (read-out: Btk IC50 value); 370 nM against Jak2 tyrosine kinase. Also, the “Ratio of Jak2/Btk IC50 values” at Jak2 tyrosine kinase (selectivity of Btk over Jak2) is 440.
Take `COc1cccn2c(=O)n(-c3cccc(-c4c(Cl)cc(C(N)=O)c5[nH]c6cc(C(C)(C)O)ccc6c45)c3C)c(=O)cc12` [Example 37, 3-Chloro-7-(2-hydroxypropan-2-yl)-4-(3-(5-methoxy-1,3-dioxo-1H-pyrido[1,2-c]pyrimidin-2(3H)-yl)-2-methylphenyl)-9H-carbazole-1-carboxamide]: the concentration for half-maximal inhibition (IC50) came to 0.91 nM at human recombinant Btk (read-out: Btk IC50 value) and 630 nM on Jak2 tyrosine kinase. Further, the “Ratio of Jak2/Btk IC50 values” on Jak2 tyrosine kinase (selectivity of Btk over Jak2) was found to be 690.
On to `Cc1c(-c2c(F)cc(C(N)=O)c3[nH]c4cc(CCO)ccc4c23)cccc1-n1c(=O)cc2c(F)cccn2c1=O` [Example 70], for which the IC50 at human recombinant Btk (read-out: Btk IC50 value) came to 0.59 nM; against Jak2 tyrosine kinase, 550 nM. In addition, the “Ratio of Jak2/Btk IC50 values” on Jak2 tyrosine kinase (selectivity of Btk over Jak2) was found to be 930.
